Measured values from paper PMC9950143 (Scientific Reports, 2023).
Entries after “also recorded” stand apart in the source; their conditions may differ. Structures can show the parent of a compound that is named as a salt.

Experiments:
[1] = system: SUDV Boniface and MARV Ci67; assay type: cell-based, Sudan virus, Marburg virus
[2] = ref PubChem compound summaries; cited from earlier work
[3] = human plasma maximum concentration; ref [1]–[19]; cited from earlier work
SUDV Boniface [4] = experiment: microbe, parasite or virus in culture; assay type: cell-based, Sudan virus; settings: for EC50: Sudan ebolavirus, HeLa, read-out: Activity against SUDV EC50
in vitro [5] = settings: human
MARV Ci67 [6] = experiment: organism not typed; assay type: cell-based, Marburg virus; settings: HeLa, read-out: Activity against MARV EC50
in vitro [7] = settings: human; remark: listed apart in the source
SUDV Boniface [8] = assay type: cell-based, Sudan virus
[9] = in vivo; cited from earlier work
MARV Ci67 [10] = assay type: cell-based, Marburg virus
West Niles virus (WNV) = settings: read-out: EC50 against West Niles virus (WNV); cited from earlier work
yellow fever virus (YFV) = settings: read-out: EC50 against yellow fever virus (YFV); cited from earlier work
HCV 1b replicon = settings: read-out: EC50 against HCV 1b replicon (early studies); cited from earlier work
dengue virus-2 (DENV-2) = settings: read-out: EC50 against dengue virus-2 (DENV-2); cited from earlier work

Row | SMILES | RDV CC50 when combination (HeLa cells; human) | RDV CC50 when in combination (HeLa cells; human) | Drug-drug interaction? (RDV potency) [1] | effect on RDV potency in combination studies [1] | Plasma Protein Binding [2] | Cmax [3] | further results
1 | CC(=O)Nc1ccc(O)cc1 [Acetaminophen] | > 2.5 µM | > 2.5 µM | No | minimal effect on RDV potency | 10–25% | 11400 [1] ng/mL | –
2 | CCN(CC)Cc1cc(Nc2ccnc3cc(Cl)ccc23)ccc1O [Amodiaquine, Amodiaquine hydrochloride dihydrate] | > 2.5 µM | > 2.5 µM | Enhanced^5 for SUDV | – | – | 32.3 [2] ng/mL | fold lowering of RDV EC50 against SUDV (SUDV Boniface [4]): > 5 folds
3 | CO[C@H]1O[C@@H]2O[C@@]3(C)CC[C@H]4[C@H](C)CC[C@@H]([C@H]1C)[C@@]24OO3 [Artemether] | > 2.5 µM | > 2.5 µM | No | minimal effect on RDV potency | 95.4% | 198 [3] ng/mL | –
4 | C[C@H]1[C@H](OC(=O)CCC(=O)O)O[C@@H]2O[C@@]3(C)CC[C@H]4[C@H](C)CC[C@@H]1[C@@]24OO3 [Artesunate] | > 2.5 µM | – | No | – | 93% | 3260 [4] ng/mL | –
5 | O=C1C(O)=C([C@H]2CC[C@H](c3ccc(Cl)cc3)CC2)C(=O)c2ccccc21 [Atovaquone] | – | – | No | minimal effect on RDV potency | 99.9% | 8300 [5, 6] ng/mL | CC50 (in vitro [5]; CC50 when tested alone): 8 to 17 µM; cytotoxicity of combination with RDV (HeLa cells): Enhanced cytotoxicity
6 | CO/N=C(\C(=O)N[C@@H]1C(=O)N2C(C(=O)O)=C(CSc3nc(=O)c(=O)[nH]n3C)CS[C@H]12)c1csc(N)n1 [Ceftriaxone, ceftriaxone disodium salt hemi(heptahydrate)] | > 2.5 µM | > 2.5 µM | Not antagonistic | – | – | 291000 [7] ng/mL | CC50 (SUDV assay) (HeLa cells; human): 20.9 ± 10.1 µM
7 | O=C(O)c1cn(C2CC2)c2cc(N3CCNCC3)c(F)cc2c1=O [Ciprofloxacin] | – | – | Enhanced for SUDV | – | – | – | –
8 | CN1C(=O)CN=C(c2ccccc2)c2cc(Cl)ccc21 [Diazepam] | – | – | No | minimal effect on RDV potency | – | – | –
9 | O=C1Nc2ccc(Cl)cc2[C@@](C#CC2CC2)(C(F)(F)F)O1 [Efavirenz] | – | – | Not antagonistic | – | 99.5–99.75% | 12900 [14] ng/mL | CC50 at 48 h (in vitro [5]): 15.1 ± 4.1 µM; CC50 (in vitro [5]; CC50 (SUDV assay)): 20.7 ± 10.1 µM; CC50 (in vitro [5]; CC50 when tested alone): 14 to 28 µM; cytotoxicity of combination with RDV (HeLa cells): Enhanced cytotoxicity; EC50 (SUDV Boniface [4]): 2.24 ± 0.57 µM; EC50 (MARV Ci67 [6]): 19.8 ± 0.1 µM
10 | NC(=O)c1nc(F)c[nH]c1=O [Favipiravir, 6-fluoro-3-oxo-3,4-dihydropyrazine-2-carboxamide] | – | – | – | – | – | – | CC50 (in vitro [7]): > 750 µM; maximum fold reduction of favipiravir EC50 in combination with RDV (SUDV Boniface [8]): ≥ 21 fold; decrease of plasma median concentration on Day 4 [9]: ~ 50%; maximum fold reduction of favipiravir EC50 in combination with RDV (MARV Ci67 [10]): ≥ 4.8 fold
11 | N#C[C@@]1(c2ccc3c(N)ncnn23)O[C@H](CO)[C@@H](O)[C@H]1O [GS-441524] | – | – | – | – | – | – | EC50 (West Niles virus (WNV)): > 30 µM; EC50 (yellow fever virus (YFV)): 11 µM; EC50 (HCV 1b replicon): 3.1 µM; EC50 (dengue virus-2 (DENV-2)): 9.46 µM
12 | Nc1ccn([C@@H]2CS[C@H](CO)O2)c(=O)n1 [Lamivudine] | > 2.5 µM | > 2.5 µM | No | minimal effect on RDV potency | <36% | 2600 [15] ng/mL | –
13 | Cc1cccc(C)c1OCC(=O)N[C@@H](Cc1ccccc1)[C@@H](O)C[C@H](Cc1ccccc1)NC(=O)[C@H](C(C)C)N1CCCNC1=O [Lopinavir] | > 2.5 µM | > 2.5 µM | No for MARV; also recorded: Not antagonistic | – | >98% | – | CC50 at 48 h (in vitro [5]): > 100 µM; CC50 (in vitro [5]; CC50 (SUDV assay)): 34.1 ± 0.9 µM; EC50 (SUDV Boniface [4]): 2.32 ± 0.58 µM; EC50 (MARV Ci67 [6]): > 100 µM
14 | CCCCN(CCCC)CC(O)c1cc(Cl)cc2c1-c1ccc(Cl)cc1/C2=C/c1ccc(Cl)cc1 (stereo not drawn) [Lumefantrine] | > 2.5 µM | > 2.5 µM | Not antagonistic | – | – | 6300 [10] ng/mL | CC50 at 48 h (in vitro [5]): 37.3 ± 0.9 µM; CC50 (in vitro [5]; CC50 (SUDV assay)): 40 ± 1.2 µM; EC50 (SUDV Boniface [4]): 9.6 ± 0.52 µM; EC50 (MARV Ci67 [6]): 16.6 ± 7.3 µM
15 | Cc1ncc([N+](=O)[O-])n1CCO [Metronidazole] | > 2.5 µM | > 2.5 µM | No | minimal effect on RDV potency | 20% | 5100 [11] ng/mL | –
16 | COc1ccc2[nH]c([S+]([O-])Cc3ncc(C)c(OC)c3C)nc2c1 (stereo not drawn) [Omeprazole] | > 2.5 µM | > 2.5 µM | No | minimal effect on RDV potency | – | 598 [12] ng/mL | –
17 | Cc1nccn1CC1CCc2c(c3ccccc3n2C)C1=O (stereo not drawn) [Ondansetron, ondansetron hydrochloride dihydrate] | > 2.5 µM | > 2.5 µM | No | minimal effect on RDV potency | 73% | 106 [13] ng/mL | –
18 | [H]/N=C(\N/C(=N/[H])Nc1ccc(Cl)cc1)NC(C)C [Proguanil, Proguanil hydrochloride] | > 2.5 µM | > 2.5 µM | No | minimal effect on RDV potency | – | 918 [5] ng/mL | –
19 | CC(C)c1nc(CN(C)C(=O)N[C@H](C(=O)N[C@@H](Cc2ccccc2)C[C@H](O)[C@H](Cc2ccccc2)NC(=O)OCc2cncs2)C(C)C)cs1 [Ritonavir] | – | – | No | minimal effect on RDV potency | – | 1271 [17] ng/mL | –
20 | CC(C)OC(=O)OCOP(=O)(CO[C@H](C)Cn1cnc2c(N)ncnc21)OCOC(=O)OC(C)C [Tenofovir disoproxil fumarate] | > 2.5 µM | > 2.5 µM | No | minimal effect on RDV potency | <1% | 300 [18, 19] ng/mL | –
